Laboratory results published in patent US20110059102A1, “Therapeutic Method Targeting Midkine” (NATIONAL UNIVERSITY CORPORATION NAGOYA UNIVERSITY, priority 2009, published 2011).
“Also recorded” adds a separate entry of the source. Counter-ions that a name gives are not always drawn.

What was measured:
MK = MK protein expression in lung and kidney by Western blotting after 5/6 nephrectomy; format: in vivo; conditions: Mdk+/+ mice after 5/6 nephrectomy
Method: (§1) Drug treatment model. In the drug treatment studies, Mdk^+/+ mice were randomly assigned to receive one of the following 5 treatments after 5/6 nephrectomy and were orally treated daily starting from 24 hours after 5/6 nephrectomy: vasodilator (hydralazine hydrochloride; Novartis) at a dose of 10 mg/kg/d (group 1, n=3); ACE inhibitor (temocapril; Daiichi Sankyo Co.) at a dose of 3 mg/kg/d (group 2, n=3); angiotensin receptor blocker (olmesartan; Daiichi Sankyo Co.) at a dose of 3 mg/kg/d (group 3, n=3); antioxidative reagent (tempol; Alexis Biochemicals) at a dose of 3 mmol/l in drinking solution after 5/6 nephrectomy (group 4, n=6); and sham operation (group 5, n=6). Drug treatment was performed […]. In the present study, we determined the dosage according to previous reports (Hypertension. 13:582-588, J. Cardiovasc. Pharmacol. 40:533-542, Hypertension. 43:841-848). Blood pressure was measured by the tail-cuff method at 2 weeks, as described below under Blood pressure monitoring. Mice were sacrificed at 2 weeks after 5/6 nephrectomy, and blood and tissue samples were collected.
Western blot analysis. Mouse kidney, lung, brain, heart, and liver tissues were snap-frozen in liquid nitrogen for protein isolation. […] The density of each band was measured using the public domain NIH Image program (http://rsb.info.nih.gov/nih-image/).

Ang II = assay: Plasma Ang II concentration after 5/6 nephrectomy; format: in vivo; conditions: Mdk+/+ mice after 5/6 nephrectomy
Method: as §1, with “Mice were sacrificed at 2 weeks after 5/6 nephrectomy, and blood and tissue samples were collected.” left out
Sample collection. […] Serum creatinine, blood urea nitrogen (Mdk^+/+: sham, n=6; 2 weeks, n=10; 4 weeks, n=9; 8 weeks, n=8; Mdk^−/−: sham, n=7; 2 weeks, n=7; 4 weeks, n=6; 8 weeks, n=4), and Ang II concentrations (Mdk^+/+: sham, n=6; 2 weeks, n=6; 4 weeks, n=8; Mdk^−/−: sham, n=6; 2 weeks, n=7; 4 weeks, n=5) were measured by Mitsubishi BCL.

[1] = tested on: Mdk+/+ mice after 5/6 nephrectomy; assay: Kidney histology (PAS staining) after 5/6 nephrectomy, drug treatment model; format: in vivo; conditions: 2 weeks after 5/6 nephrectomy; for Renal tubulointerstitial damage: PAS staining
Method: as §1
Histology and immunohistochemistry.

[2] = tested on: Mdk+/+ mice after 5/6 nephrectomy; assay: Blood pressure by tail-cuff method, drug treatment model after 5/6 nephrectomy; format: in vivo; conditions: 2 weeks after 5/6 nephrectomy
Method: as §1
(§2) Blood pressure monitoring. Blood pressure was measured in restrained, conscious mice by the indirect tail-cuff technique under unstressed conditions (BP-98A; Softron) at 0, 2, 4, 6, and 8 weeks after 5/6 nephrectomy (J. Lab. Clin. Med. 78:957-962). Before measurement, the mice were warmed with a heating pad for 5 minutes. A total of 7-10 readings were taken for each mouse, at 1- to 2-minute intervals.

[3] = Body weight, blood urea nitrogen and serum creatinine after 5/6 nephrectomy, drug treatment model; format: in vivo; conditions: Mdk+/+ mice; for BUN (blood urea nitrogen) / Cre (serum creatinine): 2 weeks after nephrectomy, oral daily at indicated dose, mean ± SD; for Abnormal elevation of blood urea nitrogen and serum creatinine: 2 weeks after 5/6 nephrectomy
Method: Animals and experimental design. Mice deficient in Mdk were generated as described previously (Genes Cells. 3:811-822). After backcrossing of Mdk+/− mice for 14 generations with 129/Sv mice, Mdk+/− mice were mated with each other to generate Mdk^+/+ and Mdk^−/− mice, which were used in this study. Experiments were performed on 8 to 12-week-old female mice weighing 20-25 g that were housed under controlled environmental conditions and maintained with standard food and water. Animal care and experimental procedures were approved by the Animal Experimentation Committee of the Nagoya University Graduate School of Medicine and were conducted according to the Nagoya University Regulations for Experiments. Renal ablation was performed as described previously. Briefly, mice were anesthetized by diethyl ether. The flank region was shaved, and the animals were placed on a heating pad to maintain a constant body temperature (37° C.). Under anesthesia, right flank incisions were made, and the right kidney was removed. Seven days later, mice were anesthetized as above, and two-thirds of the mass of the left kidneys was ablated (Mdk^+/+: 2 weeks, n=13; 4 weeks, n=13; 8 weeks, n=8; Mdk^−/−: 2 weeks, n=10; 4 weeks, n=10; 8 weeks, n=4). After the renal ablation, the flanks were closed in 2 layers with 5-0 silk sutures. The animals received 100 ml/kg warm saline instilled into the peritoneal cavity during the procedure and were allowed to recover with free access to food and water. In the control mice, a sham operation was performed (Mdk^+/+, n=11; Mdk^−/−, n=8).
as §1
Sample collection. Mice were sacrificed at 2, 4, and 8 weeks after 5/6 nephrectomy. The remnant kidney, lung, brain, heart, and liver were removed rapidly, snap-frozen in liquid nitrogen, and stored at −80° C. until examinations were performed. Each tissue was processed for histology, protein extraction, and RNA extraction. Blood samples were collected into chilled tubes for measurement of renal function parameters and into chilled tubes containing EDTA for Ang II measurements. Serum and plasma were separated by centrifugation (500 g for 10 minutes) and stored at −80° C. until measurement were performed. Serum creatinine, blood urea nitrogen (Mdk^+/+: sham, n=6; 2 weeks, n=10; 4 weeks, n=9; 8 weeks, n=8; Mdk^−/−: sham, n=7; 2 weeks, n=7; 4 weeks, n=6; 8 weeks, n=4), and Ang II concentrations (Mdk^+/+: sham, n=6; 2 weeks, n=6; 4 weeks, n=8; Mdk^−/−: sham, n=6; 2 weeks, n=7; 4 weeks, n=5) were measured by Mitsubishi BCL.

HMVEC-L = assay: Ang II concentration in HMVEC-L (conversion from Ang I to Ang II); format: cell-based, human; conditions: HMVEC-L treated 36 hours with MK 100 ng/ml plus heparin 20 μg/ml or heparin alone, then Ang I added
Method: Ang II concentration in HMVEC-L. After reaching confluence, HMVEC-L were washed with PBS and cultured for 24 hours in essential basal medium containing 0.5% FBS. These cells were exposed to 100 ng/ml rh-MK plus 20 μg/ml heparin or 20 μg/ml heparin alone in essential basal medium containing 0.5% FBS for 36 hours. After stimulation, HMVEC-L were washed with PBS and exposed to 500 pM Ang I (Sigma-Aldrich) for 10 and 25 minutes. Supernatants were collected into chilled tubes, and then the Ang II concentration was measured as previously described (Hypertension. 39:129-134).

ACE = ACE expression in HMVEC-L by Western blotting; format: cell-based, human
Text: Histology and immunohistochemistry. The removed kidneys and lungs were fixed in 10% buffered formalin, embedded in paraffin, and then cut into 4-10.1 μm sections. The sections were stained with H&E, PAS, and Masson's trichrome. Another tissue sample was embedded in OCT compound (Sakura Finetek) and frozen in liquid nitrogen for immunostaining. Sections were cut to a thickness of 3 μm with a cryostat and fixed in acetone. High-power fields were used to examine the sections for evidence of focal sclerosis (J. Hypertens. 13:1785-1790, J. Lab. Clin. Med. 115:165-173). Glomerular sclerosis was assessed by semiquantitative score (grades 0 to +4) using the method of Raij et al. (Kidney Int. 26:137-143): grade 0, no sclerosis of glomeruli; grade 1, sclerosis of up to 25% of glomerulus; grade 2, sclerosis of 25%-50% of glomerulus; grade 3, sclerosis of 50%-75% of glomerulus; grade 4, sclerosis of 75%-100% of glomerulus. At least 50 glomeruli were evaluated under ×400 magnification and results averaged for each kidney (Mdk^+/+: 2 weeks, n=5; 4 weeks, n=4; 8 weeks, n=4; Mdk^−/−: 2 weeks, n=4; 4 weeks, n=3; 8 weeks, n=3). Immunostaining for ACE and MK was performed on buffered formalin-fixed tissues. Sections were deparaffinized, rehydrated, incubated in 3% hydrogen peroxide in methanol to block endogenous peroxidase, and washed in 10% normal goat serum (Dako) in PBS to block nonspecific binding. Subsequently, sections were incubated with mouse anti-ACE monoclonal antibody (dilution, 1:400; Chemicon International, Millipore) or anti-MK monoclonal antibody (dilution, 1:100) overnight at 4° C. as described previously (22), followed by a conjugate of polyclonal goat anti-mouse IgG antibody and HRP-labeled polymer (Histofine Simple Stain; Nichirei) for 1 hour at room temperature as a secondary antibody. The staining was visualized with 3-3′ diaminobenzidine (Nichirei) to produce a brown color. The sections were covered with 90% glycerol containing p-phenylenediamine and were examined by electron microscopy (H-7100; Hitachi). For double immunofluorescence staining of MK and thrombomodulin as a marker of the vascular endothelium, the cryosections of lungs were first incubated with chicken anti-human MK (dilution, 1:200) and then with rabbit anti-rat thrombomodulin (dilution, 1:1,000) (J. Immunol. 150:5633-5646), followed by incubation with FITC-labeled rabbit anti-chicken IgG (dilution, 1:160) and rhodamine-labeled goat anti-rabbit IgG (dilution, 1:320) as secondary antibodies. […] The lung and kidney section from each mouse was viewed under ×400 magnification, and then macrophages or neutrophils were counted from 10 fields and averaged. […]

[4] = tested on: Mdk-/- mice after 5/6 nephrectomy; assay: rh-MK and -PTN treatment model (osmotic pump), blood pressure by tail-cuff; format: in vivo; conditions: 1.6 mg/ml, 100 μl by osmotic pump over 14 days
Method: rh-MK and -PTN treatment model. In the pump study, MK protein in saline (1.6 mg/ml) (n=5), PTN in saline (1.6 mg/ml; n=5), or saline alone (n=5) was infused using an osmotic pump (ALZA Corp.) into Mdk^−/− mice after 5/6 nephrectomy. The pumps continuously infused a total of 100 μl over 14 days. The pumps were implanted under the dorsal skin the next day after 5/6 nephrectomy. Blood pressure was measured by the indirect tail-cuff technique at 0 and 2 weeks after 5/6 nephrectomy. Mice were sacrificed at 2 weeks after 5/6 nephrectomy, and blood and tissue samples were collected.
as §2

In the case of CC1(C)CC(O)CC(C)(C)N1[O] [Tempol, 4-hydroxy-2,2,6,6-tetramethylpiperidine-N-oxyl], the “MK expression in the lung” value (MK; tempol 3 mmol/l in drinking water) is reported as “reduced MK expression to normal levels”, the “MK expression in the kidney” value (MK; tempol in drinking water) is reported as “reduced” and the “Plasma Ang II levels” value (Ang II) is reported as “reduced”. The Glomerular sclerosis [1] was “ameliorated”, the Renal tubulointerstitial damage [1] was “slight; also recorded: ameliorated” and the “Blood pressure / hypertension” value [2] was “reduced”. For the same molecule, the “BUN (blood urea nitrogen)” value [3] was 41.2 ± 3.9^B mg/dl, the “Cre (serum creatinine)” value [3] was 0.25 ± 0.04^A mg/dl and the “Abnormal elevation of blood urea nitrogen and serum creatinine” value (shortened to “Abnormal elevation”) [3] was “significantly reduced”.

For heparin, the “Conversion of Ang I to Ang II” value (HMVEC-L) was “did not show such a conversion”.

For NNc1nncc2ccccc12 [Hydralazine, hydralazine hydrochloride], the Renal tubulointerstitial damage [1] was “not”, the “Blood pressure / hypertension” value [2] was “ameliorated hypertension” and the “BUN (blood urea nitrogen)” value [3] was 63.3 ± 7.6 mg/dL. The “Cre (serum creatinine)” value [3] was 0.53 ± 0.12 mg/dL and the “Abnormal elevation” value [3] was “not”.

With CN(C)CCCn1cc(C2=C(c3c[nH]c4ccccc34)C(=O)NC2=O)c2ccccc21 [BIS, bisindolylmaleimide I] the “MK-mediated increase in ACE expression” value (ACE; BIS 5 μM added 1 hour before 36-hour treatment with rh-MK plus heparin) was “blocked” and the “PMA-induced increase in ACE expression” value (ACE; BIS added 1 hour before PMA) was “blocked”.

For CCOC(=O)[C@H](CCc1ccccc1)N[C@H]1CS[C@H](c2cccs2)CN(CC(=O)O)C1=O [Temocapril, temocapril], the Renal tubulointerstitial damage [1] was “reduced”, the “Blood pressure / hypertension” value [2] was “reduced” and the “BUN (blood urea nitrogen)” value [3] was 30.3 ± 2.9^A mg/dl. For the same molecule, the “Cre (serum creatinine)” value [3] was 0.21 ± 0.04^A mg/dl and the “Abnormal elevation” value [3] was “ameliorated”.

In the case of CCCc1nc(C(C)(C)O)c(C(=O)O)n1Cc1ccc(-c2ccccc2-c2nnn[nH]2)cc1 [Olmesartan, olmesartan], the “BUN (blood urea nitrogen)” value [3] is reported as 36.0 ± 1.0^B mg/dl and the “Cre (serum creatinine)” value [3] is reported as 0.21 ± 0.01^A mg/dl.

For CCCCCCCCCCCCCC(=O)O[C@@H]1[C@@H](C)[C@@]2(O)[C@@H](C=C(CO)C[C@]3(O)C(=O)C(C)=C[C@@H]23)[C@@H]2C(C)(C)[C@]12OC(C)=O [PMA], the “ACE expression in HMVEC-L” value (ACE; PMA 50 ng/ml) was “induced”.

B1: PTN: recombinant human pleiotrophin, shows 50% homology with MK (protein, UniProt P21246 33-168, looked up)
Pleiotrophin: GKKEKPEKKVKKSDCGEWQWSVCVPTSGDCGLGTREGTRTGAECKQTMKTQRCKIPCNWKKQFGAECKYQFQAWGECDLNTALKTRTGSLKRALHNAECQKTVTISKPCGKLTKPKPQAESKKKKKEGKKQEKMLD
With B1 the “Hypertension (SBP)” value [4] was “neither induced hypertension”.
